PubChem BioAssay AID2060494 (Molecular Pharmacology Branch, DTP, NCI, 2025)

Tested on: 435261-313-R-J1-PDC complex spheroid viability
Assay: Anticancer human tumor 435261-313-R-J1-PDC patient-derived colon adenocarcinoma cell line growth inhibition [GQUAD]
Conditions: for IC50: curve of first compound; for viability, T/C: stronger effect = lower value
Outline: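 Tumor cells were grown as complex spheroids with HUVEC endothelial cells and mesenchymal stem cells as stroma. G-quadruplex stabilizers were combined with targeted agents over half-log dilutions from near the clinical Cmax, or from 10 microM.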

[1] = second compound 0.0316 µM, first compound 0.0316 µM
[2] = second compound 0.0316 µM, first compound 0.1 µM
[3] = second compound 0.0316 µM, first compound 0.316 µM
[4] = second compound 0.0316 µM, first compound 1 µM
[5] = second compound 0.0316 µM, first compound 3.16 µM
[6] = second compound 0.0316 µM, first compound 10 µM
[7] = second compound 0.1 µM, first compound 0.0316 µM
[8] = second compound 0.1 µM, first compound 0.1 µM
[9] = second compound 0.1 µM, first compound 0.316 µM
[10] = second compound 0.1 µM, first compound 1 µM
[11] = second compound 0.1 µM, first compound 3.16 µM
[12] = second compound 0.1 µM, first compound 10 µM
[13] = second compound 0.316 µM, first compound 0.0316 µM
[14] = second compound 0.316 µM, first compound 0.1 µM
[15] = second compound 0.316 µM, first compound 0.316 µM
[16] = second compound 0.316 µM, first compound 1 µM
[17] = second compound 0.316 µM, first compound 3.16 µM
[18] = second compound 0.316 µM, first compound 10 µM
[19] = second compound 1 µM, first compound 0.0316 µM
[20] = second compound 1 µM, first compound 0.1 µM
[21] = second compound 1 µM, first compound 0.316 µM
[22] = second compound 1 µM, first compound 1 µM
[23] = second compound 1 µM, first compound 3.16 µM
[24] = second compound 1 µM, first compound 10 µM
[25] = second compound 3.16 µM, first compound 0.0316 µM
[26] = second compound 3.16 µM, first compound 0.1 µM
[27] = second compound 3.16 µM, first compound 0.316 µM
[28] = second compound 3.16 µM, first compound 1 µM
[29] = second compound 3.16 µM, first compound 3.16 µM
[30] = second compound 3.16 µM, first compound 10 µM
[31] = second compound 10 µM, first compound 0.0316 µM
[32] = second compound 10 µM, first compound 0.1 µM
[33] = second compound 10 µM, first compound 0.316 µM
[34] = second compound 10 µM, first compound 1 µM
[35] = second compound 10 µM, first compound 3.16 µM
[36] = second compound 10 µM, first compound 10 µM
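Note: spheroids exposed to the agents for seven days before readout.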
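Throughout, for viability, T/C: percent of vehicle control viability with DMSO wells as 100%.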

In the case of CC1COCCN1c1cc(-c2ccnn2C)c2ccnc(-c3ccn[nH]3)c2n1 (stereo not drawn) + Cc1cnc(CNC(=O)c2c(=O)c3ccc(N4CCCN(C)CC4)nc3n3c2sc2ccccc23)cn1, the IC50 (second compound 0.0316 µM) is reported as 295 nM, the IC50 (second compound 0.1 µM) is reported as 425 nM and the IC50 (second compound 0.316 µM) is reported as 318 nM. It also gave an IC50 (second compound 1 µM) of under 31.6 nM, an IC50 (second compound 3.16 µM) of under 31.6 nM and an IC50 (second compound 10 µM) of under 31.6 nM. It also gave a viability, T/C [1] of 72.1%, a viability, T/C [2] of 54.9% and a viability, T/C [3] of 54.7%. For the same compound, the viability, T/C [4] was 35.4%, the viability, T/C [5] was 36.2% and the viability, T/C [6] was 23.9%. For the same compound, the viability, T/C [7] was 61.8%, the viability, T/C [8] was 59.4% and the viability, T/C [9] was 52.4%. For the same compound, the viability, T/C [10] was 42.2%, the viability, T/C [11] was 30.6% and the viability, T/C [12] was 21.3%. For the same compound, the viability, T/C [13] was 51.8%, the viability, T/C [14] was 57.6% and the viability, T/C [15] was 50.5%. The viability, T/C [16] was 37.9%, the viability, T/C [17] was 26.5% and the viability, T/C [18] was 15.1%. The viability, T/C [19] was 36.5%, the viability, T/C [20] was 41.9% and the viability, T/C [21] was 34.6%. The viability, T/C [22] was 26.3%, the viability, T/C [23] was 13.4% and the viability, T/C [24] was 9.95%. The viability, T/C [25] was 22.4%, the viability, T/C [26] was 21.2% and the viability, T/C [27] was 11.5%. It also gave a viability, T/C [28] of 4.04%, a viability, T/C [29] of 3.7% and a viability, T/C [30] of 2.53%. It also gave a viability, T/C [31] of 0.11%, a viability, T/C [32] of 0.14% and a viability, T/C [33] of 0.18%. The viability, T/C [34] was 0.15%, the viability, T/C [35] was 0.16% and the viability, T/C [36] was 0.15%.

CC1COCCN1c1cc(C2(S(C)(=N)=O)CC2)nc(-c2ccnc3[nH]ccc23)n1 (stereo not drawn) + Cc1cnc(CNC(=O)c2c(=O)c3ccc(N4CCCN(C)CC4)nc3n3c2sc2ccccc23)cn1 showed an IC50 (second compound 0.0316 µM) of 3840 nM, an IC50 (second compound 0.1 µM) of 3200 nM and an IC50 (second compound 0.316 µM) of 2350 nM. The IC50 (second compound 1 µM) was under 31.6 nM, the IC50 (second compound 3.16 µM) was under 31.6 nM and the IC50 (second compound 10 µM) was under 31.6 nM. The viability, T/C [1] was 52.9%, the viability, T/C [2] was 57.6% and the viability, T/C [3] was 66.8%. The viability, T/C [4] was 53.9%, the viability, T/C [5] was 49.2% and the viability, T/C [6] was 42.7%. The viability, T/C [7] was 41.4%, the viability, T/C [8] was 66.6% and the viability, T/C [9] was 46.2%. It also gave a viability, T/C [10] of 45.9%, a viability, T/C [11] of 50.6% and a viability, T/C [12] of 38.8%. For the same compound, the viability, T/C [13] was 53.5%, the viability, T/C [14] was 55.8% and the viability, T/C [15] was 60.6%. It also gave a viability, T/C [16] of 55.1%, a viability, T/C [17] of 44.9% and a viability, T/C [18] of 40.5%. For the same compound, the viability, T/C [19] was 31.8%, the viability, T/C [20] was 37.9% and the viability, T/C [21] was 35.9%. For the same compound, the viability, T/C [22] was 41.5%, the viability, T/C [23] was 31.3% and the viability, T/C [24] was 26%. It also gave a viability, T/C [25] of 18.1%, a viability, T/C [26] of 10.2% and a viability, T/C [27] of 21%. The viability, T/C [28] was 18.6%, the viability, T/C [29] was 17.3% and the viability, T/C [30] was 5.09%. For the same compound, the viability, T/C [31] was 0.26%, the viability, T/C [32] was 0.15% and the viability, T/C [33] was 0.17%. For the same compound, the viability, T/C [34] was 0.18%, the viability, T/C [35] was 0.2% and the viability, T/C [36] was 0.21%.

COc1ccc([C@@H](O)c2cc(-c3ncnc4cc(N5CCOCC5)ccc34)c(F)cc2Cl)nn1 + Cc1cnc(CNC(=O)c2c(=O)c3ccc(N4CCCN(C)CC4)nc3n3c2sc2ccccc23)cn1 showed an IC50 (second compound 0.0316 µM) of 631 nM, an IC50 (second compound 0.1 µM) of 392 nM and an IC50 (second compound 0.316 µM) of 157 nM. The IC50 (second compound 1 µM) was under 31.6 nM, the IC50 (second compound 3.16 µM) was under 31.6 nM and the IC50 (second compound 10 µM) was under 31.6 nM. For the same compound, the viability, T/C [1] was 59.5%, the viability, T/C [2] was 67.4% and the viability, T/C [3] was 71.8%. It also gave a viability, T/C [4] of 39.2%, a viability, T/C [5] of 27.8% and a viability, T/C [6] of 20.3%. For the same compound, the viability, T/C [7] was 49.8%, the viability, T/C [8] was 65% and the viability, T/C [9] was 48.9%. The viability, T/C [10] was 41.4%, the viability, T/C [11] was 26.3% and the viability, T/C [12] was 16.8%. The viability, T/C [13] was 47.6%, the viability, T/C [14] was 60.9% and the viability, T/C [15] was 44.6%. The viability, T/C [16] was 34.8%, the viability, T/C [17] was 25.6% and the viability, T/C [18] was 13.4%. It also gave a viability, T/C [19] of 32.3%, a viability, T/C [20] of 42.6% and a viability, T/C [21] of 34.8%. For the same compound, the viability, T/C [22] was 28.4%, the viability, T/C [23] was 17.2% and the viability, T/C [24] was 5.89%. For the same compound, the viability, T/C [25] was 5.04%, the viability, T/C [26] was 14.9% and the viability, T/C [27] was 16.5%. It also gave a viability, T/C [28] of 0.16%, a viability, T/C [29] of 0.14% and a viability, T/C [30] of 0.29%. It also gave a viability, T/C [31] of 0.11%, a viability, T/C [32] of 0.16% and a viability, T/C [33] of 0.16%. For the same compound, the viability, T/C [34] was 0.2%, the viability, T/C [35] was 0.17% and the viability, T/C [36] was 0.15%.

O=C(c1cc(Cc2n[nH]c(=O)c3ccccc23)ccc1F)N1CCN(C(=O)C2CC2)CC1 + Cc1cnc(CNC(=O)c2c(=O)c3ccc(N4CCCN(C)CC4)nc3n3c2sc2ccccc23)cn1 was tested, and the IC50 (second compound 0.0316 µM) was over 10000 nM, the IC50 (second compound 0.1 µM) was over 10000 nM and the IC50 (second compound 0.316 µM) was over 10000 nM. For the same compound, the IC50 (second compound 1 µM) was under 31.6 nM, the IC50 (second compound 3.16 µM) was under 31.6 nM and the IC50 (second compound 10 µM) was under 31.6 nM. The viability, T/C [1] was 76%, the viability, T/C [2] was 60.9% and the viability, T/C [3] was 66.3%. For the same compound, the viability, T/C [4] was 68.2%, the viability, T/C [5] was 84% and the viability, T/C [6] was 77.7%. The viability, T/C [7] was 65.2%, the viability, T/C [8] was 65.1% and the viability, T/C [9] was 58.3%. The viability, T/C [10] was 62%, the viability, T/C [11] was 64% and the viability, T/C [12] was 62.1%. The viability, T/C [13] was 59.4%, the viability, T/C [14] was 53.8% and the viability, T/C [15] was 58.7%. The viability, T/C [16] was 59.6%, the viability, T/C [17] was 53% and the viability, T/C [18] was 52.2%. It also gave a viability, T/C [19] of 38.6%, a viability, T/C [20] of 45.9% and a viability, T/C [21] of 38.1%. For the same compound, the viability, T/C [22] was 42.7%, the viability, T/C [23] was 55.9% and the viability, T/C [24] was 37.6%. It also gave a viability, T/C [25] of 26.4%, a viability, T/C [26] of 9.89% and a viability, T/C [27] of 25.5%. The viability, T/C [28] was 15.3%, the viability, T/C [29] was 27.3% and the viability, T/C [30] was 20.5%. The viability, T/C [31] was 0.23%, the viability, T/C [32] was 0.23% and the viability, T/C [33] was 0.21%. For the same compound, the viability, T/C [34] was 0.23%, the viability, T/C [35] was 0.22% and the viability, T/C [36] was 0.23%.
